One assay deals with S. aureus. Description: MIC by broth dilution, S. aureus. The settings on record: Staphylococcus aureus; Mueller-Hinton broth, overnight 37° C.; Table 1; read-out: MIC (μg/mL) S. aureus. Format: cell-based. The method in brief: (§1)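 Broth dilution in Mueller-Hinton broth with 2-fold compound steps over 1–256 μg/mL (final) and 5×10^5 CFU/mL inoculum, incubated overnight at 37 °C. The MIC is the lowest concentration without visible turbidity, from at least biological duplicates of technical triplicates. A parallel series was supplemented with 5% (final) human plasma.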
On the technique in general: Dilution methods test growth across graded concentrations, often in twofold steps.

For the next assay, the system named is A. baumannii. The experiment in a line: MIC by broth dilution, A. baumannii. The assay is classed as cell-based. The conditions noted are these: Acinetobacter baumannii; Mueller-Hinton broth, overnight 37° C.; Table 1; read-out: MIC (μg/mL) A. baumannii. The gist of the method:
as §1

Take `CCCCCCCOc1ccccc1C(=O)Nc1ccc(C(=O)OCC[N+](CC)(CC)CCCCC)cc1.[Br-]` [Compound 71, N,N-Diethyl-N-(2-((4-(2-(heptyloxy)benzamido)benzoyl)oxy)ethyl)pentan-1-aminium bromide]: the MIC in the assay on S. aureus was less than 3 µg/mL; in the assay on A. baumannii it was 3 to 30 µg/mL.
Take `CCCCCCCCOc1c(F)cccc1C(=O)Nc1ccc(C(=O)OCC[N+](C)(CC)CC)cc1.[Br-]` [Compound 89, N,N-Diethyl-2-((4-(3-fluoro-2-(octyloxy)benzamido)benzoyl)oxy)-N-methylethan-1-aminium bromide]: the MIC in the assay on S. aureus was 3 to 30 µg/mL; with A. baumannii, greater than 30 µg/mL.
Taken in the same sequence, the figures for `CCCCCCCCOc1ccccc1C(=O)Nc1ccc(C(=O)OCC[N+](CC)(CC)CCCCc2ccccc2)cc1.[Br-]` [Compound 44, N,N-Diethyl-N-(2-((4-(2-(octyloxy)benzamido)benzoyl)oxy)ethyl)-4-phenylbutan-1-aminium bromide] were less than 3 µg/mL and 3 to 30 µg/mL.
In the case of `CCCCCCCCCCCCOc1ccccc1C(=O)Nc1ccc(C(=O)OCC[N+](C)(CC)CC)cc1.[Br-]` [Compound 26, 2-((4-(2-(Dodecyloxy)benzamido)benzoyl)oxy)-N,N-diethyl-N-methylethan-1-aminium bromide], the results for the MIC in the assay with S. aureus and with A. baumannii were 3 to 30 µg/mL and greater than 30 µg/mL, respectively.
On to `CCCCCCCCOc1ccccc1C(=O)Nc1ccc(C(=O)OCC[N+](C)(CC)CC)cc1.[Br-]` [Compound 10, N,N-diethyl-N-methyl-2-((4-(2-(octyloxy)benzamido)benzoyl)oxy)ethan-1-aminium bromide, reference compound], for which the MIC in the assay on S. aureus and in the assay on A. baumannii was 3 to 30 µg/mL throughout.
Take `CCCCCCCCCOc1ccccc1C(=O)Nc1ccc(C(=O)OCC[N+](C)(CC)CC)cc1.[Br-]` [Compound 23, N,N-Diethyl-N-methyl-2-((4-(2-(nonyloxy)benzamido)benzoyl)oxy)ethan-1-aminium bromide]: the MIC in the assay on S. aureus and with A. baumannii was 3 to 30 µg/mL in each case.
With `CCCCCCCCOc1ccc(F)cc1C(=O)Nc1ccc(C(=O)OCC[N+](C)(CC)CC)cc1.[Br-]` [Compound 86, N,N-Diethyl-2-((4-(5-fluoro-2-(octyloxy)benzamido)benzoyl)oxy)-N-methylethan-1-aminium bromide], the MIC is less than 3 µg/mL in the assay with S. aureus and 3 to 30 µg/mL with A. baumannii.
Take `CCCCCCCCOc1ccc(OCCCCCCCC)c(C(=O)Nc2ccc(C(=O)OCC[N+](C)(CC)CC)cc2)c1.[Br-]` [Compound 16, 2-((4-(2,5-Bis(octyloxy)benzamido)benzoyl)oxy)-N,N-diethyl-N-methylethan-1-aminium bromide]: the MIC in the assay on S. aureus and in the assay on A. baumannii was greater than 30 µg/mL each time.
Turning to `CCCCCCCCOc1ccccc1C(=O)Nc1ccc(C(=O)NC2CC[N+](C)(CCC)CC2)cc1.[Br-]` (stereo not shown) [Compound 72, 1-Methyl-4-(4-(2-(octyloxy)benzamido)benzamido)-1-propylpiperidin-1-ium bromide], the figures for the MIC in the assay with S. aureus and in the assay with A. baumannii were 3 to 30 µg/mL and greater than 30 µg/mL, respectively.
Take `CCCCCCCCOc1ccccc1C(=O)Nc1ccc(C(=O)NC2CC[N+](C)(CC)CC2)cc1.[Br-]` (stereo not shown) [Compound 80, 1-Ethyl-1-methyl-4-(4-(2-(octyloxy)benzamido)benzamido)piperidin-1-ium bromide]: the MIC is 3 to 30 µg/mL in the assay on S. aureus and greater than 30 µg/mL in the assay with A. baumannii.
For the molecule `CCCCCCCCOc1ccccc1C(=O)Nc1ccc(C(=O)OCC[N+]2(CCC)CCCC2)cc1.[Br-]` [Compound 56, 1-(2-((4-(2-(Octyloxy)benzamido)benzoyl)oxy)ethyl)-1-propylpyrrolidin-1-ium bromide], the MIC in the assay with S. aureus was less than 3 µg/mL; in the assay on A. baumannii it was 3 to 30 µg/mL.
With `CCCCCCCCOc1ccccc1C(=O)Nc1ccc(C(=O)OCC[N+](CC)(CC)Cc2ccc([N+](=O)[O-])cc2)cc1.[Br-]` [Compound 39, N,N-Diethyl-N-(4-nitrobenzyl)-2-((4-(2-(octyloxy)benzamido)benzoyl)oxy)ethan-1-aminium bromide], the results for the MIC in the assay on S. aureus and in the assay with A. baumannii were 3 to 30 µg/mL and greater than 30 µg/mL, respectively.
For `CCCCCCCCOc1ccccc1C(=O)Nc1ccc(C(=O)N(C)CC[N+](CC)(CC)CCC)cc1.[Br-]` [Compound 59, N,N-Diethyl-N-(2-(N-methyl-4-(2-(octyloxy)benzamido)benzamido)ethyl)propan-1-aminium bromide], the MIC in the assay on S. aureus was 3 to 30 µg/mL; in the assay on A. baumannii, greater than 30 µg/mL.
On to `CCCCCCCCOc1ccccc1C(=O)Nc1ccc(C(=O)OCC[N+](C)(CC)CC)cc1F.[Br-]` [Compound 91, N,N-Diethyl-2-((3-fluoro-4-(2-(octyloxy)benzamido)benzoyl)oxy)-N-methylethan-1-aminium bromide], for which the MIC in the assay with S. aureus is 3 to 30 µg/mL; in the assay with A. baumannii, greater than 30 µg/mL.
For `CCCCCCCCOc1ccccc1C(=O)Nc1ccc(C(=O)OCC[N+](CC)(CC)CCCCCCC)cc1.[Br-]` [Compound 37, N,N-Diethyl-N-(2-((4-(2-(octyloxy)benzamido)benzoyl)oxy)ethyl)heptan-1-aminium bromide], the MIC is less than 3 µg/mL in the assay with S. aureus and 3 to 30 µg/mL in the assay on A. baumannii.
As to `CCCCCCCCOc1cc(F)ccc1C(=O)Nc1ccc(C(=O)OCC[N+](C)(CC)CC)cc1.[Br-]` [Compound 87, N,N-Diethyl-2-((4-(4-fluoro-2-(octyloxy)benzamido)benzoyl)oxy)-N-methylethan-1-aminium bromide], the values for the MIC in the assay with S. aureus and in the assay with A. baumannii were 3 to 30 µg/mL and greater than 30 µg/mL, respectively.
On to `CCCCCCCCOc1ccccc1C(=O)Nc1ccc(C(=O)OCCC[N+](C)(CC)CC)cc1.[I-]` [Compound 45, N,N-Diethyl-N-methyl-3-((4-(2-(octyloxy)benzamido)benzoyl)oxy)propan-1-aminium iodide], for which the MIC in the assay on S. aureus and in the assay with A. baumannii was 3 to 30 µg/mL throughout.
`CCCCCCCCCC[N+](CC)(CC)CCOC(=O)c1ccc(NC(=O)c2ccccc2OCCCCCCCC)cc1.[Br-]` [Compound 48, N,N-Diethyl-N-(2-((4-(2-(octyloxy)benzamido)benzoyl)oxy)ethyl)decan-1-aminium bromide]: the MIC was less than 3 µg/mL with S. aureus and greater than 30 µg/mL in the assay on A. baumannii.
With `CCCCCCCCOc1ccccc1C(=O)Nc1ccc(C(=O)OCC[N+](CC)(CC)CC2CCCCC2)cc1.[Br-]` [Compound 62, N-(Cyclohexylmethyl)-N,N-diethyl-2-((4-(2-(octyloxy)benzamido)benzoyl)oxy)-ethan-1-aminium bromide], the MIC is less than 3 µg/mL in the assay with S. aureus and 3 to 30 µg/mL in the assay on A. baumannii.
`CCCCCCCOc1ccccc1C(=O)Nc1ccc(S(=O)(=O)NCC[N+](CC)(CC)CCCC)cc1.[Br-]` [Compound 93, N,N-Diethyl-N-(2-((4-(2-(heptyloxy)benzamido)phenyl)sulfonamido)ethyl)butan-1-aminium bromide]: the MIC is 3 to 30 µg/mL in the assay on S. aureus and greater than 30 µg/mL in the assay with A. baumannii.
Taken in the same sequence, the figures for `CCCCCCCCOc1ccccc1C(=O)Nc1ccc(C(=O)OCC[N+](CC)(CC)Cc2ccc(C(F)(F)F)cc2)cc1.[Br-]` [Compound 41, N,N-Diethyl-2-((4-(2-(octyloxy)benzamido)benzoyl)oxy)-N-(4-(trifluoromethyl)-benzyl)ethan-1-aminium bromide] were less than 3 µg/mL and greater than 30 µg/mL.
For `CCCCCCCOc1ccccc1C(=O)Nc1ccc(C(=O)NC2CC[N+](C)(CCC)CC2)cc1.[Br-]` (stereo not shown) [Compound 73, 4-(4-(2-(Heptyloxy)benzamido)benzamido)-1-methyl-1-propylpiperidin-1-ium bromide], in that order: 3 to 30 µg/mL and greater than 30 µg/mL.
For the molecule `CCCCCCCCOc1ccccc1C(=O)Nc1ccc(C(=O)OC2CC[N+](CC)(CCC)CC2)cc1.[Br-]` (stereo not shown) [Compound 57, 1-Ethyl-4-((4-(2-(octyloxy)benzamido)benzoyl)oxy)-1-propylpiperidin-1-ium bromide], the MIC in the assay on S. aureus and in the assay on A. baumannii was 3 to 30 µg/mL each time.

The values above are taken from patent US11952330B2, “Antibiotic ammonium compounds and methods for the treatment of bacterial infections” (priority 2019, dated 2024).
